These results are taken from patent publication US20260042755A1, “GPR6 INVERSE AGONISTS” (MapLight Therapeutics, Inc., priority 2022, published 2026).

In one test the target is T1, GPR6 (Homo sapiens, UniProt P46095).
T1 construct: expressed in transfected cells; host or cells: CHO cells
In words: GPR6 antagonist functional cAMP assay (LANCE Ultra cAMP TR-FRET, CHO cells stably expressing GPR6). The test is classed as cell-based. The method in brief: (§1)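 cAMP quantified by TR-FRET immunoassay after 45 min compound treatment at 37° C of CHO cells stably expressing GPR3 or GPR6, in PDE-inhibitor (Ro 20-1724, 150 μM) buffer with 0.1% BSA. Data scaled between DMSO (0%) and reference compounds (100%); antagonist IC50 by 4-parameter logistic fit.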

The next test deals with T2, GPR3 (Homo sapiens, UniProt P46089).
T2 construct: expressed in transfected cells; host or cells: CHO cells
T2 sequence (P46089 whole entry, species assumed): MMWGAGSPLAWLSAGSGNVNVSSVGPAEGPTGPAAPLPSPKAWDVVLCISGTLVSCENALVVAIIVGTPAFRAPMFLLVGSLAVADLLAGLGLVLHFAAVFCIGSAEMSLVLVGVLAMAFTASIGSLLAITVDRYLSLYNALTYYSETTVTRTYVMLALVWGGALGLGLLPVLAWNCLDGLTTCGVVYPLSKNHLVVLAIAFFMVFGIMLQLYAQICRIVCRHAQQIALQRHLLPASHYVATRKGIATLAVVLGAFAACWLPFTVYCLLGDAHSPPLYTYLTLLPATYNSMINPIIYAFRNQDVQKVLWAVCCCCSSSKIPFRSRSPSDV
Description: GPR3 antagonist functional cAMP assay (LANCE Ultra cAMP TR-FRET, CHO cells stably expressing GPR3). It counts as cell-based. The method in brief:
as §1
A general note: Changes in cAMP serve as a functional read-out for many G protein-coupled receptors.

Where [1] appears, read: CHO cells stably expressing GPR6, cAMP assay (Example 24).
The mark [2] stands for this setting: CHO cells stably expressing GPR3, cAMP assay (Example 24).
The mark [3] stands for this setting: CHO cells stably expressing GPR6, cAMP assay.
Where [4] appears, read: CHO cells stably expressing GPR3, cAMP assay.
Where [5] appears, read: procedure as described in Example 24.

By pIC50 is commonly meant the negative decadic logarithm of the IC50, by convention in mol/L. The low end stands for a large IC50, the high end for a small IC50.

pIC50: −log10 of the molar value.

T1 sequence (P46095 whole entry): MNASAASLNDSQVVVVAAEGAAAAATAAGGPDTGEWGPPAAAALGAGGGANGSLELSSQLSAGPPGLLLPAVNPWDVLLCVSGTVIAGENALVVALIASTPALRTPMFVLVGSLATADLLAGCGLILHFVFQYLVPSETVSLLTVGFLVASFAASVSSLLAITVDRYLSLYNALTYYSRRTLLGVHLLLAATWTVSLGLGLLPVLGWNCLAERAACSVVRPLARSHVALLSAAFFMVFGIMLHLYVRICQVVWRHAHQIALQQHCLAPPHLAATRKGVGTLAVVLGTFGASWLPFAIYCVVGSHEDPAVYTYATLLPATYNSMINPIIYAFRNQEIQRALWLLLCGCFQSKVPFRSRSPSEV

On to `COc1cccc(-c2nc3cnccc3nc2N2CCC(Oc3ccc(F)cc3F)CC2)n1` [Compound 102, 2-{2-[4-(2,4-difluorophenoxy)piperidin-1-yl]pyrido[3,4-b]pyrazin-3-yl}-6-methoxypyridine], for which the figures for the pIC50 on GPR6 (setting [1]) and against GPR3 (setting [2]) were 6.00 to 7.00 and 4.52 to 6.00, respectively.

Consider `CC(=O)N1CCc2nc(N3CCN(Cc4c(F)ccc(F)c4F)CC3)c(-c3cnn(C)c3)nc2C1` [Compound 354, 1-[3-(1-methyl-1H-pyrazol-4-yl)-2-{4-[(2,3,6-trifluorophenyl)methyl]piperazin-1-yl}-5H,6H,7H,8H-pyrido[3,4-b]pyrazin-6-yl]ethan-1-one], for which the pIC50 against GPR6 (procedure of Example 24) and against GPR3 (procedure of Example 24) was 4.52 to 6.00 each time.

For the compound `COC(=O)N1CCc2nc(N3CCC(Oc4ccc(F)cc4F)CC3)c(-c3cnn(C4CCCCO4)c3)nc2C1` (centres unmarked) [Compound 125, methyl 2-[4-(2,4-difluorophenoxy)piperidin-1-yl]-3-[1-(oxan-2-yl)-1H-pyrazol-4-yl]-5H,6H,7H,8H-pyrido[3,4-b]pyrazine-6-carboxylate], the results for the pIC50 at GPR6 (setting [1]) and at GPR3 (setting [2]) were 6.00 to 7.00 and 4.52 to 6.00, respectively.

Take `CC(=O)N1CCc2nc(N3CCN(Cc4cc(Cl)ccc4Cl)CC3)c(-c3ccc(F)c(N)n3)nc2C1` [Compound 580, 1-[3-(6-amino-5-fluoro-2-pyridyl)-2-{4-[(2,5-dichlorophenyl)methyl]-1-piperazinyl}-5,6,7,8-tetrahydro-1,4,6-triaza-6-naphthyl]-1-ethanone]: the negative logarithm of the IC50 (pIC50) against GPR6 (setting [3]) was greater than 7.00; against GPR3 (setting [4]), 4.52 to 6.00.

In the case of `COc1cncc(-c2nc3cnc(Cl)cc3nc2N2CCN(Cc3ccc(F)cc3F)CC2)n1` [Compound 159, 2-(7-chloro-2-{4-[(2,4-difluorophenyl)methyl]piperazin-1-yl}pyrido[3,4-b]pyrazin-3-yl)-6-methoxypyrazine], the pIC50 against GPR6 (setting [1]) and against GPR3 (setting [2]) was 4.52 to 6.00 throughout.

With `CCn1cc(-c2nc3cnc(C(=O)C(C)(C)O)cc3nc2N2CCC(Oc3ccc(F)cc3F)CC2)cn1` [Compound 651, 1-{2-[4-(2,4-difluorophenoxy)-1-piperidyl]-3-(1-ethyl-4-pyrazolyl)-1,4,6-triaza-7-naphthyl}-2-hydroxy-2-methyl-1-propanone], the negative logarithm of the IC50 (pIC50) against GPR6 (procedure of Example 24) was 6.00 to 7.00; against GPR3 (procedure of Example 24) it was 4.52 to 6.00.

`Cn1cc(-c2nc3ccc(C(O)C(C)(C)O)nc3nc2N2CCC(Oc3ccc(F)cc3F)CC2)cn1` (centres unmarked) [Compound 587, 1-{3-[4-(2,4-difluorophenoxy)-1-piperidyl]-2-(1-methyl-4-pyrazolyl)-1,4,5-triaza-6-naphthyl}-2-methyl-1,2-propanediol]: the pIC50 on GPR6 (setting [3]) and at GPR3 (setting [4]) was 4.52 to 6.00 throughout.

As to `COc1ccc(OC2CCN(c3nc4c(nc3-c3cnn(C)c3)CN(C(C)=O)CC4)CC2)cn1` [Compound 498, 1-{2-[4-(6-methoxy-3-pyridyloxy)-1-piperidyl]-3-(1-methyl-4-pyrazolyl)-5,6,7,8-tetrahydro-1,4,6-triaza-6-naphthyl}-1-ethanone], the negative logarithm of the IC50 (pIC50) against GPR6 (setting [3]) and on GPR3 (setting [4]) was 4.52 to 6.00 throughout.

With `CNC(=O)c1cc2nc(N3CCC(Oc4ccc(F)cc4F)CC3)c(-c3cncc(OC)n3)nc2cn1` [Compound 222, 2-[4-(2,4-difluorophenoxy)piperidin-1-yl]-3-(6-methoxypyrazin-2-yl)-N-methylpyrido[3,4-b]pyrazine-7-carboxamide], the pIC50 on GPR6 (setting [1]) and against GPR3 (setting [2]) was 4.52 to 6.00 throughout.

In the case of `C[C@H]1CN(Cc2ccc(F)cc2F)CCN1c1nc2ccncc2nc1-c1cnn(C)c1` (single isomer, unassigned) [Compound 225], the negative logarithm of the IC50 (pIC50) is 6.00 to 7.00 at GPR6 (setting [1]) and 4.52 to 6.00 against GPR3 (setting [2]).

For `CCn1cc(-c2nc3c(nc2N2CCC(Oc4cc(Cl)ccc4Cl)CC2)CCN(C(=O)CO)C3)cn1` [Compound 403, 1-{2-[4-(2,5-dichlorophenoxy)piperidin-1-yl]-3-(1-ethyl-1H-pyrazol-4-yl)-5H,6H,7H,8H-pyrido[3,4-b]pyrazin-6-yl}-2-hydroxyethan-1-one], the pIC50 was 6.00 to 7.00 at GPR6 (setting [1]) and 4.52 to 6.00 against GPR3 (setting [2]).

In the case of `COc1cccnc1-c1nc2c(nc1N1CCC(Oc3ccc(F)cc3F)CC1)CCN(C(C)=O)C2` [Compound 80, 1-{2-[4-(2,4-difluorophenoxy)piperidin-1-yl]-3-(3-methoxypyridin-2-yl)-5H,6H,7H,8H-pyrido[3,4-b]pyrazin-6-yl}ethan-1-one], the negative-log IC50 (pIC50) on GPR6 (setting [1]) is no more than 4.52; at GPR3 (setting [2]), 4.52 to 6.00.

For the compound `Cn1cc(-c2nc3cnc([C@H](O)C(C)(C)O)cc3nc2N2CCC(=Cc3ccc(F)cc3F)CC2)cn1` (single isomer, unassigned) [Compound 720], the pIC50 against GPR6 (procedure of Example 24) is greater than 7.00; at GPR3 (procedure of Example 24) it was 4.52 to 6.00.

Consider `COc1cnc(-c2nc3c(nc2N2CCC(Oc4ccc(F)cc4F)CC2)CCN(C(C)=O)C3)nc1` [Compound 191, 1-{2-[4-(2,4-difluorophenoxy)piperidin-1-yl]-3-(5-methoxypyrimidin-2-yl)-5H,6H,7H,8H-pyrido[3,4-b]pyrazin-6-yl}ethan-1-one], for which the pIC50 at GPR6 (setting [1]) and against GPR3 (setting [2]) was 4.52 to 6.00 in each case.

As to `COC(=O)N1CCc2nc(N3CCC(Oc4ccc(F)cc4F)CC3)c(-c3cn[nH]c3)nc2C1` [Compound 154, methyl 2-[4-(2,4-difluorophenoxy)piperidin-1-yl]-3-(1H-pyrazol-4-yl)-5H,6H,7H,8H-pyrido[3,4-b]pyrazine-6-carboxylate], the pIC50 is greater than 7.00 on GPR6 (setting [1]) and 4.52 to 6.00 at GPR3 (setting [2]).

Turning to `Fc1ccc(OC2CC3(C2)CN(c2nc4ccncc4nc2-c2cn[nH]c2)C3)c(F)c1` [Compound 26, 2-(6-(2,4-difluorophenoxy)-2-azaspiro[3.3]heptan-2-yl)-3-(1H-pyrazol-4-yl)pyrido[3,4-b]pyrazine], the negative logarithm of the IC50 (pIC50) is 4.52 to 6.00 at GPR6 (setting [5]) and 6.00 to 7.00 at GPR3 (setting [5]).

Take `CCn1cc(-c2nc3cnc([C@@](C)(O)C(C)(C)O)cc3nc2N2CCN(Cc3ccc(F)cc3F)CC2)cn1` (single isomer, unassigned) [Compound 690]: the pIC50 against GPR6 (procedure of Example 24) is 6.00 to 7.00; against GPR3 (procedure of Example 24), 4.52 to 6.00.

Take `Fc1ccc(Cl)cc1CN1CCN(c2nc3ccncc3nc2-c2cn[nH]c2)CC1` [Compound 4, 1-[(5-chloro-2-fluorophenyl)methyl]-4-[3-(1H-pyrazol-4-yl)pyrido[3,4-b]pyrazin-2-yl]piperazine]: the results for the pIC50 against GPR6 (setting [5]) and at GPR3 (setting [5]) were 6.00 to 7.00 and 4.52 to 6.00, respectively.

Take `CC(=O)N1CCc2nc(N3CCN(Cc4ccc(F)cc4F)C[C@@H]3C)c(-c3cnn(C)c3)nc2C1` (single isomer, unassigned) [Compound 232]: the pIC50 against GPR6 (setting [1]) and at GPR3 (setting [2]) was 4.52 to 6.00 throughout.

On to `Cn1cc(-c2nc3cnc([C@@H](O)C(C)(C)O)cc3nc2N2CCN(Cc3ccc(F)cc3F)CC2)cn1` (single isomer, unassigned) [Compound 578], for which the figures for the pIC50 against GPR6 (setting [3]) and on GPR3 (setting [4]) were 6.00 to 7.00 and 4.52 to 6.00, respectively.

Consider `O=C(C1CCCN1)N1CCc2nc(N3CCC(Oc4ccc(F)cc4F)CC3)c(-c3cn[nH]c3)nc2C1` (centres unmarked) [Compound 178, 4-(2,4-difluorophenoxy)-1-[3-(1H-pyrazol-4-yl)-6-(pyrrolidine-2-carbonyl)-5H,6H,7H,8H-pyrido[3,4-b]pyrazin-2-yl]piperidine], for which the pIC50 at GPR6 (setting [1]) was 6.00 to 7.00; on GPR3 (setting [2]), 4.52 to 6.00.

As to `CCn1cc(-c2nc3c(nc2N2CCC(Oc4ccc(F)cc4F)CC2)CCN(S(C)(=O)=O)C3)cn1` [Compound 269, 4-(2,4-difluorophenoxy)-1-[3-(1-ethyl-1H-pyrazol-4-yl)-6-methanesulfonyl-5H,6H,7H,8H-pyrido[3,4-b]pyrazin-2-yl]piperidine], the pIC50 on GPR6 (procedure of Example 24) was greater than 7.00; against GPR3 (procedure of Example 24) it was 4.52 to 6.00.
